Key:
[1] = target: T1, ClbP (Escherichia coli, UniProt Q0P7K6); experiment: ClbP cell lysate activity (inhibition) assay, fluorogenic substrate; format: biochemical; conditions: ClbP Lysate Inhibition Assay: IC50, E. coli ClbP+ lysozyme-EDTA lysates, 5 μM fluorogenic substrate, inhibitor 0-300 μM, 37° C., singlicate
Experimental: Cell Lysate Activity Assay
(§1) 1) E. coli ClbP+ were taken from a frozen stock and streaked onto BHI plates. They were grown aerobically at 37° C. overnight in the incubator.
(§2) 1) A single colony was selected from the plate and inoculated into 30 mL LB in a 50 mL conical vial eight times (240 mL total). The bacteria were grown aerobically overnight (16-20 h) at 37° C. on a nutator with rocking.
1) The saturated overnight culture was centrifuged to create a firm pellet (3,200 g, 10 min, 4° C.). The supernatant was removed and then the pellet was resuspended in 30 mL sterile PBS.
2) The bacteria were centrifuged again (3,200 g, 10 min, 4° C.). The supernatant was removed, and the pellet was resuspended in sterile PBS buffer (3 mL) in each 8 tubes to make a tenfold concentrated bacterial solution.
3) A lysozyme-EDTA (LE) solution was made in ddH2O (0.05 mg/mL lysozyme, 0.25 M EDTA).
4) For each of the eight tubes, LE solution (3 mL) was mixed with concentrated bacterial solution (3 mL). This mixture was incubated at 37° C. for 30 min to generate the lysates.
5) The lysates (192 μL) were mixed with inhibitor (6 μL, final concentration was 300, 100, 33.3, 11.1, 3.7, 1.2, 0.4, or 0 μM). Fluorogenic substrate (2 μL, final concentration 5 μM) was immediately added across the plate to initiate the reaction. As a control, each plate contained Compound No. III in this dose response curve. The final concentration of bacterial lysates was fivefold concentrated compared to the original saturated overnight culture. Carryover from DMSO was 4% (v/v). All compounds were tested in singlicate.
(§3) 6) The plate was loaded into a spectrophotometer preheated to 37° C. The fluorescence was recorded every 2 min for 46 min. The excitation wavelength was 360 nm (20 nm bandwidth), the emission wavelength was 460 nm (20 nm bandwidth), the optics position was bottom, the gain was 65, the light source was a tungsten bulb, and the read speed was normal.
(§4) 7) The linear portion of the fluorescence increase was 0-20 min. The rate of fluorescence increase (A.U./min) for each well in an inhibitor series was normalized to the 0 μM inhibitor condition. The normalized activity as a function of inhibitor concentration was then fit to a three parameter IC50 curve in Graphpad Prism.
(§5) “A” indicates an IC50 value less than 100 μM, “B” indicates an IC50 between 100 and 300 μM, “C” indicates an IC50 above 300 μM.

[2] = target: Full-length WT ClbP (Escherichia coli, UniProt Q0P7K6); experiment: ClbP molecular (purified protein) enzymatic inhibition assay, fluorogenic substrate; format: biochemical, E. coli
Experimental: ClbP Molecular (Purified Protein) Assay
1) Full-length WT ClbP was thawed on ice. A diluted enzyme solution (2 nM) was made by mixing 3.57 μL of enzyme with 20 mL of reaction buffer (50 mM Tris pH 8.0, 200 mM NaCl, 0.02% (w/v) n-dodecyl-b-D-maltoside (DDM)).
2) In a 96 well plate, the diluted protein solution (73.5 μL) was mixed with inhibitor (1.5 μL, of varying concentrations, see below) and preincubated for 15 min at room temperature. Then, reaction buffer (75 μL) containing 10 μM fluorogenic substrate was added to initiate the reaction. After addition of substrate, the final concentrations were 1 nM full-length WT ClbP, 5 μM fluorogenic substrate in 50 mM Tris pH 8.0, 200 mM NaCl, 0.02% (w/v) DDM, with either 0, 0.14, 0.41, 1.2, 3.7, 11, 33, or 100 μM inhibitor. For all conditions, the DMSO carryover was 2% (v/v) at the preincubation stage and 1% in the reaction stage. Compound No. III was always present as a control in each plate, and all compounds were tested in singlicate. In previous assays, the Km of the fluorogenic substrate was determined to be approximately 5 μM.
3) Immediately after addition of substrate to enzyme, the plate was transferred into a spectrophotometer held at room temperature. The fluorescence was recorded every 1.5 min for 15 min. The excitation wavelength was 360 nm (20 nm bandwidth), the emission wavelength was 440 nm (20 nm bandwidth), the optics position was bottom, the gain was extended, the light source was a xenon flash lamp, and the read speed was normal.
as §4, with “4)” for “7)”, “is at least from 0-6 min, so this time regime is used.” for “was 0-20 min.”
as §5

[3] = target: T1, ClbP; experiment: ClbP whole cell activity (inhibition) assay, fluorogenic substrate; format: cell-based, E. coli
Experimental: Whole Cell Activity Assay
as §1, §2
1) The saturated overnight culture was centrifuged to create a firm pellet (3,200 g, 10 min, 4° C.). In a biosafety cabinet, the supernatant was removed and then the pellet was resuspended in 30 mL sterile PBS.
2) The bacteria were centrifuged again (3,200 g, 10 min, 4° C.). The supernatant was removed, and the pellet was resuspended in sterile PBS buffer (6 mL) in each of the 8 tubes. This fivefold concentrated bacterial solution was the working solution.
3) The bacterial working solution (192 μL) was mixed with inhibitor (6 μL, final concentration was 300, 100, 33.3, 11.1, 3.7, 1.2, 0.4, or 0 μM). Fluorogenic substrate (2 μL, final concentration 5 μM) was immediately added across the plate to initiate the reaction. As a control, each plate contained Compound No. III in this dose response curve. The bacterial concentration was fivefold concentrated compared to the original saturated overnight culture. Carryover from DMSO was 4% (v/v). All compounds were tested in singlicate.
as §3, with “4)” for “6)”
as §4, with “5)” for “7)”, “10-30” for “0-20”
as §5

| Compound | IC50 [1] [µM] | IC50 [2] [µM] | IC50 [3] [µM] |
| --- | --- | --- | --- |
| CCCCCCCC(=O)N[C@H](CC(N)=O)C(=O)NCCC1CCN(C)CC1 [Compound CCXIX] | 100 to 300 | < 100 | < 100 |
| CCCCCCCC(=O)N[C@H](CC(N)=O)c1nnc(CCc2ccccc2)o1 [Compound CCXI] | > 300 | 100 to 300 | > 300 |
| NC(=O)C[C@@H](NC(=O)CCC1CCCCC1)C(=O)NCCc1ccccc1 [Compound CCXLIII] | < 100 | < 100 | < 100 |
| NC(=O)C[C@@H](NC(=O)CCC1CCCCC1)C(=O)NCCc1ccc(O)cc1 [Compound CCXLII] | < 100 | < 100 | < 100 |
| CCCCCCCC(=O)N[C@H](CC(N)=O)C(=O)N[C@@H](C)Cc1ccc(O)cc1 [Compound CCXLIV] | < 100 | < 100 | < 100 |
| CCCCCCCC(=O)N[C@H](CC(N)=O)C(=O)NCCc1ccc(OC)c(OC)c1 [Compound CCXLIX] | < 100 | < 100 | < 100 |
| NC(=O)C[C@@H](NC(=O)CCCC1CCCCCC1)C(=O)NCCc1ccc(O)cc1 [Compound CCXLI] | < 100 | < 100 | < 100 |
| CCCCCCCC(=O)N[C@H](CC(N)=O)C(=O)NCCc1cccc(OC)c1 [Compound CCXLVIII] | < 100 | < 100 | 100 to 300 |
| CCCCCCCC(=O)N[C@H](CC(=O)NC)C(=O)NCCc1ccc(O)cc1 [Compound CCXLVI] | 100 to 300 | < 100 | < 100 |
| CCCCCCCC(=O)N[C@H](CC(N)=O)C(=O)N[C@H](C)Cc1ccc(O)cc1 [Compound CCXLV] | < 100 | < 100 | < 100 |
| NC(=O)C[C@@H](NC(=O)/C=C/CC1CCCCCC1)C(=O)NCCc1ccc(O)cc1 [Compound CCXL] | < 100 | < 100 | < 100 |
| CCCCCCCC(=O)N[C@H](CC(N)=O)C(=O)NCCC1CCNCC1 [Compound CCXVIII] | < 100 | 100 to 300 | < 100 |
| CCCCCCCC(=O)N[C@H](CC(=O)NC)C(=O)NCCc1ccccc1 [Compound CCXVI] | 100 to 300 | 100 to 300 | < 100 |
| CCCCCCCC(=O)N[C@H](CC(N)=O)C(=O)NCCc1cccc(O)c1 [Compound CCXXIII] | < 100 | < 100 | < 100 |
| NC(=O)C[C@@H](NC(=O)CCCC1CCCCC1)C(=O)NCCc1ccc(O)cc1 [Compound CCXXII] | < 100 | < 100 | < 100 |
| CCCCCCCC(=O)N[C@H](CC(N)=O)C(=O)NCCc1ccccc1O [Compound CCXXIV] | < 100 | < 100 | < 100 |
| CCCCCCCCCC(=O)N[C@H](CC(N)=O)C(=O)NCCc1ccc(O)cc1 [Compound CCXXI] | < 100 | < 100 | < 100 |

| Compound | IC50 [1] [µM] | IC50 [2] [µM] | IC50 [3] [µM] |
| --- | --- | --- | --- |
| CCCCCCCC(=O)N[C@H](CC(N)=O)C(=O)NCCn1cccn1 [Compound CCXXVIII] | < 100 | < 100 | < 100 |
| CCCCCCCC(=O)N[C@H](CC(N)=O)C(=O)NCCc1c[nH]cn1 [Compound CCXXVII] | < 100 | < 100 | < 100 |
| CCCCCCCC(=O)N[C@H](CC(N)=O)C(=O)NCCc1ccc(O)c(O)c1 [Compound CCXXVI] | < 100 | < 100 | < 100 |
| CCCCCCCC(=O)N[C@H](CC(N)=O)C(=O)NCCc1ccc(O)cc1O [Compound CCXXV] | < 100 | < 100 | < 100 |
| CCCCCCCC(=O)N[C@H](CC(N)=O)C(=O)NCCc1nnn[nH]1 [Compound CCXXXIII] | < 100 | < 100 | < 100 |
| CCCCCCCC(=O)N[C@H](CC(N)=O)C(=O)NCCc1cncs1 [Compound CCXXXII] | < 100 | < 100 | < 100 |
| CCCCCCCC(=O)N[C@H](CC(N)=O)C(=O)NCCn1cnnc1 [Compound CCXXXIV] | > 300 | 100 to 300 | < 100 |
| NC(=O)C[C@@H](NC(=O)CCCC1CCCCCC1)C(=O)NCCc1ccccc1 [Compound CCXXXIX] | < 100 | < 100 | < 100 |
| CCCCCCCC(=O)N[C@H](CC(N)=O)C(=O)NCCc1ccco1 [Compound CCXXXI] | < 100 | < 100 | < 100 |
| NC(=O)C[C@@H](NC(=O)/C=C/CC1CCCCCC1)C(=O)NCCc1ccccc1 [Compound CCXXXVIII] | < 100 | < 100 | < 100 |
| CCCCCCCC(=O)N[C@H](CC(N)=O)C(=O)NCCc1ccc(OC)nc1 [Compound CCXXXVII] | < 100 | < 100 | < 100 |
| CCCCCCC(F)(F)C(=O)N[C@H](CC(N)=O)C(=O)NCCc1ccc(O)cc1 [Compound CCXXXVI] | < 100 | < 100 | > 300 |
| CCCCCCCC(=O)N[C@H](CC(N)=O)C(=O)NCCc1ccc(=O)[nH]c1 [Compound CCXXXV] | > 300 | < 100 | < 100 |
| CCCCCCCC(=O)N[C@H](CC(N)=O)C(=O)NCCc1cccnc1 [Compound CCXXX] | < 100 | < 100 | < 100 |
| CCCCCCCC(=O)N[C@H](CC(N)=O)C(=O)NCCN1CCNCC1 [Compound CCXX] | < 100 | < 100 | < 100 |
| CCCCCCCNC(=O)[C@H](CC(N)=O)NC(=O)Oc1ccccc1 [Compound CCX] | > 300 | 100 to 300 | > 300 |
| CCCCCCCC(=O)N[C@H](CC(N)=O)[C@H](O)CCCc1ccccc1 [Compound CXCII] | < 100 | 100 to 300 | > 300 |

— patent US20230234917A1, “ASPARAGINE DERIVATIVES AND METHODS OF USING SAME” (priority 2020, published 2023)
